A short description of data set [1]: Host cell cytotoxicity in the image-based assay (total host cells). To be noted: rat, H9c2 rat cardiomyoblasts (infected with T. cruzi), 72 h treatment. On the procedure:
Tested compounds were dissolved and serially diluted in dimethylsulfoxide (DMSO) using a half-log dilution across six concentrations. Intermediate plates were prepared by diluting compounds 1:25 in DMEM (Dulbecco’s Modified Eagle Medium) with 10% FBS (Fetal Bovine Serum). The assay was based on [Fredo Naciuk et al. (2020)], with minor modifications. Briefly, T. cruzi trypomastigotes (from LLC-MK2 cultures, 6 days post-infection) were used to infect H9c2 rat cardiomyoblasts overnight (16–18 h) at MOI 1. After washing with PBS, cells were trypsinized and resuspended in DMEM at 2.3 × 10^4 cells/mL. Then, 65 μL per well was plated in 384-well plates and incubated for 24 h (37 °C, 5% CO2, >95% humidity). Subsequently, 7.5 μL of compound solution was added (final [DMSO] 0.4%). After 72 h of treatment, cells were fixed with 4% PFA and stained with Hoechst 33342 (4 μg/mL). Six images per well were acquired using the Operetta system (PerkinElmer) and analyzed with Columbus software to quantify infected cells (≥3 cytoplasmic parasite spots).

A short description of data set [2]: Oral bioavailability (plasma concentration). In kind it is in vivo, BALB/c mice. The note with it: mice; for concentration at 1 h: female, BALB/c, mouse, plasma, 50 mg/kg, oral administration, after 1 h; for plasma concentration (in words): single oral dose 50 mg/kg, 5-60 min. How it is done: For the in vivo assays, female BALB/c mice, aged between 8 and 9 weeks and weighing approximately 25 g, were used. […] After preparation, three animals received a single oral dose of 50 mg/kg for each compound via gavage. The control group received only the vehicle. Blood samples were collected at 5-, 15-, 30-, 45-, and 60-minute post-administration using submandibular vein puncture, retro-orbital collection, and intracardiac (terminal) puncture. The mice were maintained under inhalation anesthesia with 3% isoflurane throughout the sampling period to ensure animal welfare. Blood samples were transferred to heparin-containing tubes and processed by centrifugation (4,000 rpm, 10 min, 4 °C) to separate the plasma. The obtained plasma was transferred to clean vials and stored at -80 °C until analysis. Compound quantification was performed using ultra-performance liquid chromatography coupled with tandem mass spectrometry (UPLC-MS/MS).

The nature of data set [3]: Metabolic stability in rat liver microsomes. To be noted: for half-life at 1 μM / microsomal CLint at 1 μM: Sprague-Dawley, pH 7.4, rat liver microsomes; for half-life at 1 μM: 0.25 mg/mL, read-out: T1/2 rat; for microsomal CLint at 1 μM: read-out: CL int. mic.; for parent compound remaining: rat microsomes. Type of data set: in vitro ADME. On the procedure: (§1) The in vitro metabolic stability of the compound was evaluated in pooled human liver microsomes (HLM, 20 mg/mL), Sprague-Dawley rat liver microsomes (RLM, 20 mg/mL), and CD-1 mouse liver microsomes (MLM, 20 mg/mL), all purchased from GIBCO (Thermo Fisher Scientific). NADPH regenerating system (GentestTM) was prepared in potassium phosphate buffer (100 mM, pH 7.4). […] The reaction was stopped by adding acetonitrile, followed by vortex homogenization, sonication for 5 min, and centrifugation at 10,000 g for 5 min at 4 °C. The supernatants were transferred to glass vials for LC-MS/MS analysis. The half-life was estimated based on the area under the curve (AUC) through regression analysis of the concentration decay over time. This calculation was performed using the following formula: t1/2=LN2/Kel
(§2) Where LN is the neperian logarithm, and K is the slope of the regression of the LN of AUC as a function of time. Then, the microsomal intrinsic clearance (CLint, mic) was calculated using the following equation: CLint.mic=LN2/t1/2 x VI/PM
(§3) Where V is the incubation volume (µL), and PM is the microsomal protein concentration (mg). This intrinsic clearance can be extrapolated to the whole liver (CLint,hep) using the following equation: CLint.hep=CLint.mic x ML x LB
(§4) ML is the microsomal yield, and LB is the liver weight (g) per kilogram of body weight.
(§5) To ensure the linearity of the elimination phase and to avoid the influence of points outside the log-linear range, the points deviated from the expected first-order kinetic profile were excluded. The supernatants were analyzed by UPLC-Xevo-TQ-XS from Waters. Chromatographic separation was performed on an Acquity UPLC BEH C18 column (2.1 × 100 mm, 1.7 µm particle size), maintained at 40 °C. The mobile phases were (A) water with 0.1% formic acid and (B) acetonitrile with 0.1% formic acid. […] The total run time was 5 min.
(In general: Liver microsomes are a subcellular fraction often used to study metabolism.)

A short description of data set [4]: Caco-2 permeability assay. In kind it is in vitro ADME. To be noted: human, Caco-2; apical to basolateral, 0.1 mM, 120 min. On the procedure: (§6) Caco-2 cells (2.5 × 10^5) were cultured on 12 mm diameter filters with DMEM-PEST medium in an incubator at 37 °C and 10% CO2. Monolayer formation was monitored through transepithelial electrical resistance (TEER). […] The assay was conducted under orbital shaking at 37 °C. […] Compound quantification was performed using the HPLC-UV method, following the previously adjusted chromatographic conditions and parameters. At the end of the experiment, monolayer integrity was confirmed by measuring TEER.
(Passage across Caco-2 layers is used to estimate intestinal permeability.)

The test system of a further data set is Caco-2 cells. Kind of data set: Caco-2 permeability assay. In kind it is in vitro ADME. On the procedure:
as §6

Data set [5] concerns the target T. cruzi malic enzyme (TcME) (Trypanosoma cruzi, UniProt Q4DJ68). Briefly: Malic enzyme (TcME) inhibition assay, diaphorase/resazurin coupled. Type of data set: biochemical. The note with it: concentration necessary to inhibit 50% of T. cruzi Malic enzyme enzymatic activity. How it is done:
The TcME inhibition assay was performed as previously described, with minor modifications ([Mercaldi et al., 2021]). Briefly, a coupled assay with the enzyme diaphorase and resorufin fluorescence (Ex 545 nm/Em 600 nm) was recorded every 30 s for 6 min in a CLARIOstar plate reader (BMG LabTech). The final concentrations of reagents in the assay were: 0.02 mM NADP+, 0.4 mM L-aspartate, 0.45 nM TcMEc, 1 U/mL diaphorase, and 10 μM resazurin, all in 50 mM Tris-HCl buffer containing 50 mM NaCl and 2 mM MnCl2 at pH 7.5. The reaction was initiated by adding 1.32 mM L-malate.
For orientation: The colour change of resazurin is a common sign of viable cells or microbes.

The nature of data set [6]: Metabolic stability in human liver microsomes. In kind it is in vitro ADME. To be noted: for half-life at 1 μM / microsomal CLint at 1 μM: pooled liver microsomes, pH 7.4, human liver microsomes; for half-life at 1 μM: 0.25 mg/mL, read-out: T1/2 human; for microsomal CLint at 1 μM: read-out: CL int. mic.; for parent compound remaining: human microsomes. How it is done: as §1, §2, §3, §4, §5

T. cruzi malic enzyme (TcME), sequence (Q4DJ68 entry or part of it): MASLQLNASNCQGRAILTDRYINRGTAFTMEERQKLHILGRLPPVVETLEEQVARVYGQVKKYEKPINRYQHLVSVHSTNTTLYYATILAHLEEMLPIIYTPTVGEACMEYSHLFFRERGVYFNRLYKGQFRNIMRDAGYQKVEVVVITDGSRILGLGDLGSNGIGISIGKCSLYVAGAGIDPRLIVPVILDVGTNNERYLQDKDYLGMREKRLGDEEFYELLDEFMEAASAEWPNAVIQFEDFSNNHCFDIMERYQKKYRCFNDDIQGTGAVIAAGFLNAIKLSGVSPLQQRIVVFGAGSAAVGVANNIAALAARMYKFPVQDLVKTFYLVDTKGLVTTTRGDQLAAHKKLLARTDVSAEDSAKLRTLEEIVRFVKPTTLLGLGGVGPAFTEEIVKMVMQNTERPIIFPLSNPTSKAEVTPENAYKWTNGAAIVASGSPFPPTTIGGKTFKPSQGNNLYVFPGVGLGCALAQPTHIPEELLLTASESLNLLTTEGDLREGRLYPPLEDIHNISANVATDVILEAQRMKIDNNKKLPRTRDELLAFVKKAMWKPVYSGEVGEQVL

As a reminder, the CC50 is the concentration giving 50% cytotoxicity. Lower therefore signals harm at low concentration. As a reminder, the Papp is the rate of passage across a membrane or cell layer, normalised by area and donor concentration. By IC50 is commonly meant the concentration that gives 50% inhibition. A higher IC50 goes with lower potency. Turning to `CC(C)Oc1ccc(NS(=O)(=O)c2cccc(NC(=O)c3cnccn3)c2)cc1` [AC-M110, N-(3-(N-(4-isopropoxyphenyl)sulfamoyl)phenyl)pyrazine-2-carboxamide], it took 63 µM to reach half-maximal cytotoxicity in data set [1] (CC50 at 72 h). Moreover, in data set [2], the concentration at 1 h is no more than 1000 nM; the “plasma concentration (in words)” value was “between EC50 and EC90”. For the same compound, in data set [3], the half-life at 1 μM came out at 9 min and the microsomal CLint at 1 μM is 61 µL/min/mg. The Papp at 120 min, 0.1 mM in data set [4] worked out at 20.7 ×10⁻⁶ cm/s. The “Caco-2 permeability classification (in words)” value in the data set on Caco-2 cells was “approaching high permeability classification”. The compound further gave an IC50 in data set [5] of 7 µM. Further, in data set [6], the half-life at 1 μM worked out at 6 min and the microsomal CLint at 1 μM came out at 97 µL/min/mg.

`COc1ccc(NS(=O)(=O)c2cccc(NC(=O)c3cnccn3)c2)cc1` [AC-R008, N-(3-(N-(4-methoxyphenyl)sulfamoyl)phenyl)pyrazine-2-carboxamide] had a CC50 at 72 h in data set [1] of 99 µM. For the same compound, the concentration at 1 h in data set [2] was no more than 1000 nM. The “plasma concentration (in words)” value in data set [2] is “between EC50 and EC90”. For the same compound, the half-life at 1 μM in data set [3] is 10 min; in data set [6], 7 min. For the same compound, the microsomal CLint at 1 μM in data set [3] was 55 µL/min/mg; in data set [6] it was 78 µL/min/mg. Further, the parent compound remaining was 55% in data set [3] (5 min), “about 1%” in data set [3] (60 min), 47% in data set [6] (5 min) and “about 1%” in data set [6] (60 min). The compound further yielded a Papp at 120 min, 0.1 mM in data set [4] of 9.71 ×10⁻⁶ cm/s. For the same compound, in the data set with Caco-2 cells, the “Caco-2 permeability classification (in words)” value was “near the lower limit for moderate permeability”. For the same compound, the IC50 in data set [5] is 0.5 µM.
